Test results from patent EP2736485B1, “AQUEOUS SOLUTIONS OF […], IN […] SOLUTIONS” (Universität Regensburg, priority 2011, dated 2013).

Test: Solubilisation of active ingredient in aqueous surfactant solution (stirring overnight at room temperature)
Type: physicochemical
Conditions: Aqua bidest. ad 1,00 ml
Method: Das einfache grundlegende System besteht aus einem erfindungsgemäß geeigneten Tensid, einem lipophilen Wirkstoff und Wasser. Durch Lösen der Bestandteile mittels Rühren entsteht ein vorzugsweise klares, kolloidales System, in welchem die lipophile Substanz in Mizellen verkapselt gelöst ist.
Wirkstoff und Tensid wurden eingewogen und um 1ml Aqua bidest. ergänzt. Dieser Ansatz wurde über Nacht durch Rühren bei Raumtemperatur (21°C) gelöst. […] Die Messungen wurden mittels Photonenkorellationsspektrometrie durchgeführt.
Die Herstellung erfolgte analog wie bereits unter Beispiel 1 beschrieben.

SMILES: CCCC1O[C@@H]2C[C@H]3[C@@H]4CCC5=CC(=O)C=C[C@]5(C)[C@H]4[C@@H](O)C[C@]3(C)[C@]2(C(=O)CO)O1 (stereo partly shown) [Budesonid]
- Budesonid in Lösung (Solutol® HS15 10,00 mg): 0,09 mg
- Budesonid in Lösung (Solutol® HS15 50,00 mg): 0,41 mg
- Budesonid in Lösung (Solutol® HS15 100,00 mg): 0,77 mg
- Budesonid in Lösung (Solutol® HS15 200,00 mg): 1,32 mg
